Source: ChEMBL document CHEMBL1201862, “PubChem BioAssay data set” (2004)
Calls of active or inactive are those of the source.

Legend:
[1] = inhibitors of firefly luciferase expression or activity, dose response, H4 neuroglioma cells, luminescence (AID 1990); assay type: functional, cell-based
[2] = system: Streptococcus sp. 'group A'; assay: growth inhibition of control SK(-) GAS strain, dose response, counter-screen for streptokinase expression inhibitor project, luminescence, kanamycin, BacTiterGlo, confirmation (AID 1900); assay type: functional, organism-based
cells [3] = assay type: functional, cell-based
[4] = Luminescence Cell-Based Dose Response HTS to Identify Inhibitors of 5'UTR Stem-Loop Driven Prion Protein mRNA Translation in H4 Neuroglioblastoma Cells. [Related pubchem assays: 1827 (Project Summary), 1813 (Primary HTS)]; assay type: functional
[5] = inhibitors of SNCA 5'UTR-driven reporter translation, confirmation, H4 neuroglioma cells, luminescence (AID 1988); assay type: functional, cell-based
[6] = inhibitors of intracellular T. cruzi replication, confirmation, NIH3T3 host cells, beta-gal luminescence (AID 2044); assay type: functional, cell-based;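 note: intracellular parasites grown in NIH/3T3 mouse fibroblasts as host cells; luminescent beta-galactosidase reporter signal from transgenic T. cruzi replicating inside host cells; inhibitors lower the luminescence signal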
cells [7] = assay type: functional, cell-based; remark: listed apart in the source
[8] = cytotoxicity toward NIH3T3 fibroblasts, dose response, counter-screen, cell-based, ATP luminescence, mouse fibroblasts (AID 2010); assay type: functional;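 note: cells exposed to compound for about 90 hours before reading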
Streptococcus = assay: Group A Streptococcus viability loss, dose response, counter-screen for streptokinase expression inhibitor project, luminescence, BacTiterGlo (AID 1915); assay type: functional, organism-based;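 note: potency for reduction of bacterial viability or growth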
INS1 = assay: beta cell apoptosis inhibitors, cytokine rescue, dose response, luminescence, retest (AID 449756); assay type: functional, cell-based; conditions: Rattus norvegicus;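 note: cell death triggered by IL-1 beta plus TNF-alpha plus IFN-gamma mixture; protective hits raise ATP signal compared with cytokine alone wells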
[9] = Shn3 3'UTR reporter inhibitors, dose response, cell-based, Clone20 osteoblasts, firefly luciferase, cherry-picked (AID 624132); assay type: functional;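 note: firefly luciferase luminescence from reporter carrying the Shn3 3'UTR in osteoblasts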
[10] = HepG2 cell cytotoxicity, dose response, cytotoxicity control for Shn3 inhibitor project, CellTiter-Glo, cherry-picked (AID 624134); assay type: functional, cell-based
[11] = control 3'UTR Renilla luciferase suppression, dose response, counter-screen for Shn3 inhibitor project, cell-based, Clone20-Shn3RL, cherry-picked (AID 624133); assay type: functional
[12] = biological target: Photoreceptor-specific nuclear receptor (Homo sapiens, UniProt Q9Y5X4); assay type: functional, cell-based;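 note: CHO-S cells with Gal4-NCOR and VP16-NR2E3 two-hybrid luciferase reporter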
Sequence of Photoreceptor-specific nuclear receptor (Q9Y5X4 whole entry, the tested form may be a part): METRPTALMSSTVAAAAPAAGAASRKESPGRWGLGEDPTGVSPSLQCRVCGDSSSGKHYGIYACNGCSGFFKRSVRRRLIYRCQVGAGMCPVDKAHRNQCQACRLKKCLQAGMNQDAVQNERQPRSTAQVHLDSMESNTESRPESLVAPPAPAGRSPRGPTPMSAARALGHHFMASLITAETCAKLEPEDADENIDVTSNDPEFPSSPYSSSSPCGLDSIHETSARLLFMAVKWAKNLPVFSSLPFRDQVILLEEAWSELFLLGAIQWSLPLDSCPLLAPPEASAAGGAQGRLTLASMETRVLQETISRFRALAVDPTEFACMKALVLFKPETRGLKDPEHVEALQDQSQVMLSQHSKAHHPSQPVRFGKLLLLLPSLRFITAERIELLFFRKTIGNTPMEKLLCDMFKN

[13] = cytotoxicity in NIH3T3 fibroblasts, dose response, cytotoxicity control for HSP40 inhibitor project, cell-based, CellTiter-Glo luminescence, cherry-pick, set 2 (AID 624265); assay type: functional
[14] = cytotoxicity in HEK-293T cells, dose response, cytotoxicity control for TCR NF-kB inhibitor project, luminescence, T-cell screen hits (AID 489026); assay type: functional, cell-based;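 note: cells exposed to compound about 14 hours before the viability readout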
A549 = assay: A549 cell toxicity, dose response, cytotoxicity control, plate reader, cherry-pick samples (AID 687028); assay type: functional, cell-based; conditions: Homo sapiens
[15] = growth suppression of PTEN-null colon cells, dose response, cell-based, HCT116 PTEN knockout (AID 1047); assay type: functional;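 note: HCT116 colon tumor cells with PTEN knocked out; cells exposed to compound for 60 hours before readout; potency for loss of cell viability measured by luminescence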
[16] = growth suppression of beta-catenin-knockout colon cells, dose response, cell-based, HCT116, human colon tumor (AID 1045); assay type: functional;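 note: HCT116 colon tumor cells with beta catenin knocked out; cells exposed to compound for 60 hours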
Nonstructural protein 1 = Nonstructural protein 1 (Influenza A virus, UniProt Q194T2); assay type: functional, Influenza A virus (A/California/07/2009(H1N1))
Sequence of Nonstructural protein 1 (Q194T2 whole entry, the tested form may be a part): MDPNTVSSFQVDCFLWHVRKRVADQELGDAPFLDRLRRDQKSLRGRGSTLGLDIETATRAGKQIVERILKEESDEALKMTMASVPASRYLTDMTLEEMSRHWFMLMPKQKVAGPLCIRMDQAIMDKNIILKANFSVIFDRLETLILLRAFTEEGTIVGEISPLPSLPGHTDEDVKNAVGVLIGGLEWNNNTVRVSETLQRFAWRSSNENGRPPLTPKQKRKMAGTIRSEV

[17] = biological target: Arf-GAP with SH3 domain, ANK repeat and PH domain-containing protein 1 (Homo sapiens, UniProt Q9ULH1); assay type: functional;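 note: biochemical fluorescence polarization dose–response screen measuring inhibition of ASAP1; ASAP1 GAP domain stimulating GTP hydrolysis by truncated human ARF1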
Sequence of Arf-GAP with SH3 domain, ANK repeat and PH domain-containing protein 1 (Q9ULH1 whole entry, the tested form may be a part): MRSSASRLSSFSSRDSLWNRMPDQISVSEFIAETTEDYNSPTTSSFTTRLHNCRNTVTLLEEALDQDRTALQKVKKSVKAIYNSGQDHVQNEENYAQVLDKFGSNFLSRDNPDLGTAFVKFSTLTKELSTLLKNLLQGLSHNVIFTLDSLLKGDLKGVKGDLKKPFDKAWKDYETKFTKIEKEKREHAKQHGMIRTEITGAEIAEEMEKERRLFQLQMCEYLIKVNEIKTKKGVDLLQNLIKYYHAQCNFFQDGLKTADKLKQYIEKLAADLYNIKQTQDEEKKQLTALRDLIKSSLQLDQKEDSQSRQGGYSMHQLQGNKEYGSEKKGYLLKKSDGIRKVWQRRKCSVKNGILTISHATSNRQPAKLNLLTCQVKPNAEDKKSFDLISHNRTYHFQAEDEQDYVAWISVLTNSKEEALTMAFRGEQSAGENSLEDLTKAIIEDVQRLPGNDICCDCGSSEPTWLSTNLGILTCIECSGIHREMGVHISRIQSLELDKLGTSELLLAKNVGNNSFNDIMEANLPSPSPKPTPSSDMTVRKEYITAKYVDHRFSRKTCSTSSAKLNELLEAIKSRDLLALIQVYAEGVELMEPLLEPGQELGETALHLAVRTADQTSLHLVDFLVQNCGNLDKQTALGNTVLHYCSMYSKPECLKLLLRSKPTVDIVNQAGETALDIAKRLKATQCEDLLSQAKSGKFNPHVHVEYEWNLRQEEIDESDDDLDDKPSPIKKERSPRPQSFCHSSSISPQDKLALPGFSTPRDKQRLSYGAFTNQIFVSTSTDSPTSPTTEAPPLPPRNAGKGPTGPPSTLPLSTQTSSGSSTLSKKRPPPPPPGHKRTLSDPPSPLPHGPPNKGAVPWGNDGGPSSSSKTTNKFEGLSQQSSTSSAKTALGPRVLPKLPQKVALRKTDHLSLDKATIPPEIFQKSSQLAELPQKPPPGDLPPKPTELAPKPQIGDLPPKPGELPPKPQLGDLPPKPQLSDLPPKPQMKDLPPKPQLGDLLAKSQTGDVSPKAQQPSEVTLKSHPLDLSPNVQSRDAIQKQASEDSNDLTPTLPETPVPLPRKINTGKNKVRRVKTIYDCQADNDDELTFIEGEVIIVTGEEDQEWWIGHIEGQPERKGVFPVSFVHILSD

[18] = biological target: T1, DNA repair protein RAD52 homolog (Homo sapiens, UniProt P43351); assay type: functional, biochemical
T1 sequence (P43351 whole entry): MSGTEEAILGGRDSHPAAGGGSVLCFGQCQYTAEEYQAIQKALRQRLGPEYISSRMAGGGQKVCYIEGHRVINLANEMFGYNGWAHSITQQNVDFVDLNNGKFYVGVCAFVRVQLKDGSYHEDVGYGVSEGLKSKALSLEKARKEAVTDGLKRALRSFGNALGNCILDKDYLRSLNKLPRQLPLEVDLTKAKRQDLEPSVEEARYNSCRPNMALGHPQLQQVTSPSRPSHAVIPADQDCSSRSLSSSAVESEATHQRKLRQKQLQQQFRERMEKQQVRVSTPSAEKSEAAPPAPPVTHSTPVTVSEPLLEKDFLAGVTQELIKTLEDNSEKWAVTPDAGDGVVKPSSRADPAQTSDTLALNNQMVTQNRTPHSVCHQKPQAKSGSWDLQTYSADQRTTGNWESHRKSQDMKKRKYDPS

[19] = biological target: T2, Methionyl-tRNA synthetase, putative (Trypanosoma brucei brucei, UniProt Q38C91); assay type: functional, Trypanosoma brucei brucei strain 927/4 GUTat10.1
T2 sequence (Q38C91 whole entry): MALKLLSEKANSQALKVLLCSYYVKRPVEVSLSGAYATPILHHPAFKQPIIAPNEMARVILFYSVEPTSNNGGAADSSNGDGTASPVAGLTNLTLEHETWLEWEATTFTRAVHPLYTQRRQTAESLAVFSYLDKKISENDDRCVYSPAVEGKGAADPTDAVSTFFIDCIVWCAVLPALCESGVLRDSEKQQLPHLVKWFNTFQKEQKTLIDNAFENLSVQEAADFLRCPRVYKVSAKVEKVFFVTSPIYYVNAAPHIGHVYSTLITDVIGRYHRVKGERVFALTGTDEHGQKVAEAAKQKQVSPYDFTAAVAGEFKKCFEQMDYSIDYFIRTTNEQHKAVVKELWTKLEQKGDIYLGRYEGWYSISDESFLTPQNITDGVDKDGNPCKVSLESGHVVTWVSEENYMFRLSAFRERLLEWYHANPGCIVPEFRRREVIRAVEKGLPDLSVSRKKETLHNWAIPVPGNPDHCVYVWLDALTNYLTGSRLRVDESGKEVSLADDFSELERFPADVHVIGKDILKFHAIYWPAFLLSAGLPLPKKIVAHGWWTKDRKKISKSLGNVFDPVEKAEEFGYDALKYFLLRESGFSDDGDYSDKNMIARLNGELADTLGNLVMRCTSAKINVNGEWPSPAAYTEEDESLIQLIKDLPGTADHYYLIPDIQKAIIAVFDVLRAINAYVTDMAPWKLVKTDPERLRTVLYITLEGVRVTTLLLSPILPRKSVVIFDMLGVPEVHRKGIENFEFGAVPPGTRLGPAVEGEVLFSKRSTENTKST

[20] = Counterscreen for inhibitors of Trypanosoma brucei methionyl tRNA synthetase (MetRS): Luminescence-based cell-based high throughput dose response assay to identify compounds that are cytotoxic to Jurkat human T lymphocyte cells.; assay type: functional
[21] = biological target: T2, Methionyl-tRNA synthetase, putative; assay type: functional, Trypanosoma brucei brucei strain 927/4 GUTat10.1; remark: listed apart in the source
[22] = biological target: T3, Aryl hydrocarbon receptor (Homo sapiens, UniProt P35869); conditions: Potency;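 note: confirmatory quantitative high-throughput screen measuring activation of the AhR signaling pathway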
T3 sequence (P35869 whole entry): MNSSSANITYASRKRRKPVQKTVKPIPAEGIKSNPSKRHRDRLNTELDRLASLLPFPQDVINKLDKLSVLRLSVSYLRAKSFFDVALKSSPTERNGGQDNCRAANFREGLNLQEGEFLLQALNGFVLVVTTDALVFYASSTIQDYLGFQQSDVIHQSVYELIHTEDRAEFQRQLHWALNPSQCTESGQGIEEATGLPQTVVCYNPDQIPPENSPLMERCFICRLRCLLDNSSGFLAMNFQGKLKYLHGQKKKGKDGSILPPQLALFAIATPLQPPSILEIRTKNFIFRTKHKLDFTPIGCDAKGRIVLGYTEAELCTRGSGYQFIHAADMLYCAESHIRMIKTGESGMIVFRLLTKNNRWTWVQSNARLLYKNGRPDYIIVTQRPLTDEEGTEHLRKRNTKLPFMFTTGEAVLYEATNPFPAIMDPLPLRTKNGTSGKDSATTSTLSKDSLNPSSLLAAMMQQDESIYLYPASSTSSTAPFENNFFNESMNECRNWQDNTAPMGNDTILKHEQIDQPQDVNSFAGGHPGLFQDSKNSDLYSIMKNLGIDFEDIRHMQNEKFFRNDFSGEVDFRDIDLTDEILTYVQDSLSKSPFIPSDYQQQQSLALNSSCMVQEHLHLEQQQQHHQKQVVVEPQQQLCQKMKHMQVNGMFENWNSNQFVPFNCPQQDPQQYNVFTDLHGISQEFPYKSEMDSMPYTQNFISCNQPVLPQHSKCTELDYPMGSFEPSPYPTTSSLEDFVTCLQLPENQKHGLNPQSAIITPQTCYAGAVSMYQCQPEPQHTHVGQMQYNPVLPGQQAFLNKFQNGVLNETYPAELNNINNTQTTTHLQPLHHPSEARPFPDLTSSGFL

In the case of `COc1cnc(-c2ccccn2)nc1N(C)c1ccccc1`, the EC50 [1] is reported as 8.68 µM (active), the EC50 [2] is reported as 4.74 µM (active) and the EC50 (cells [3]) is reported as 8.25 µM (active). For the same compound, the EC50 [4] was 7.24 µM (active), the EC50 [5] was > 120 µM (not active) and the EC50 [6] was 1.89 µM (active). For the same compound, the EC50 (cells [7]) was > 350 µM (not active), the EC50 [8] was 5.78 µM (active) and the EC50 (Streptococcus) was 11 µM (active). For the same compound, the AC50 (INS1) was 4.34 µM (active), the AC50 [9] was 1.83 µM (active) and the AC50 [10] was 4.02 µM (active). For the same compound, the AC50 [11] was 0.92 µM (active), the IC50 [12] was 4.58 µM (active) and the AbsAC35_uM [13] was 62.35 µM.

For `Oc1cc(-c2cccc(F)c2)nc2ccccc12`, the IC50 [14] was > 80 µM (inactive) and the AC50 (A549) was 18.8 µM (active).

For `CCC(/C=C1\Sc2ccc(OC)cc2N1CCO)=C\c1sc2ccc(OC)cc2[n+]1CCO`, the EC50 [15] was 5.7 µM (active), the EC50 [16] was 5.82 µM (active) and the IC50 (Nonstructural protein 1) was 5.11 µM (active). For the same compound, the IC50 [17] was 165 µM (inactive) and the AC50 [18] was 1.77 µM (active).

In the case of `O=C(CCCOc1ccc(Cl)cc1Cl)N/N=C/c1ccco1`, the IC50 [19] is reported as 12.7 µM (inactive), the IC50 [20] is reported as 83.3 µM (inactive) and the IC50 [21] is reported as 12 µM (inactive).

With `CC1(C)C(C=C(Cl)Cl)C1C(=O)OCc1cccc(Oc2ccccc2)c1` (stereo unspecified) [PERMETHRIN] the AC50 [22] was 44.7 µM (inconclusive).
